The numbers were not newly measured in patent US20200039732A1, “DEVICES FOR DISPENSING A HYDROFLUOROOLEFIN VAPOCOOLANT COMPOSITION AS AN AEROSOL” (GEBAUER COMPANY, priority 2016, published 2020), which cites them from elsewhere.

Read-outs that look alike come from different tables or passages of the source.

For the series the following is noted: for Liquid Viscosity / Surface Tension: at 20° C.

For `CCCl` [Ethyl Chloride, chloroethane], the “Liquid Viscosity” value is given as 0.279 cP and the “Surface Tension” value is 19.5 dyne/cm. For the setting “25° C.”, the Pvap is 0.135 MPa. Moreover, the Pvap (80° C.) is on record as 0.745 MPa.
Turning to `FC(F)(F)/C=C/Cl` [HCFO-1233zd, trans-1-chloro-3,3,3-trifluoropropene], the “Liquid Viscosity” value is 0.319 cP and the “Surface Tension” value is listed as 14.039 dyne/cm. Further, the Pvap (25° C.) is on record as 0.108 MPa. For the same molecule, under “80° C.”, the Pvap is given as 0.650 MPa.
With `FCC(F)(F)F` [HFC-134a, 1,1,1,2-tetrafluoroethane], the “Liquid Viscosity” value was 0.202 cP and the “Surface Tension” value is 8.69 dyne/cm. Also, the Pvap (25° C.) is on record as 0.665 MPa. Moreover, where the note is “80° C.”, the Pvap is reported as 2.63 MPa.
Regarding `FC(F)CC(F)(F)F` [HFC-245fa, 1,1,1,3,3-pentafluoropropane], the “Liquid Viscosity” value is listed as 0.402 cP and the “Surface Tension” value is 13.6 dyne/cm. For the setting “25° C.”, the Pvap was 0.124 MPa. Further, the Pvap (80° C.) was 0.789 MPa.
On to `F/C=C/C(F)(F)F` [HFO-1234ze, trans-1,3,3,3-tetrafluoroprop-1-ene], for which the “Liquid Viscosity” value is 0.489 cP and the “Surface Tension” value was 13.3 dyne/cm. In addition, the Pvap (25° C.) is listed as 0.484 MPa. The Pvap (80° C.) is 2.01 MPa.
For `CC(C)C` [Iso-Butane, isobutane], the “Liquid Viscosity” value is listed as 0.156 cP and the “Surface Tension” value was 10.3 dyne/cm. The Pvap (25° C.) is 0.319 MPa. For the same molecule, for the setting “80° C.”, the Pvap was 1.5 MPa.
